Results taken from patent US8859783B2, “Indirubin-3′-oxime derivatives as potent cyclin dependent kinase inhibitors” (Anygen Co., Ltd., priority 2010, dated 2014).
Where “and” joins values, the source holds several entries; their conditions need not be identical. Equal values may be shown once.

Legend:
CDK2/cyclin E = target: T1, CDK2/cyclin E (Homo sapiens, UniProt P24941); experiment: CDK2/cyclin E kinase assay; assay type: biochemical; conditions: for IC50: ten concentrations, dose response curves, read-out: CDK2/cyclin E inhibitory activity IC50; for CDK2 potency relative to compound 1: higher potency than 1
T1 construct: purchased Milipore (Billerica, Mass.)
Procedure: CDK1/cyclin B, CDK2/cyclin E were purchased from Milipore (Billerica, Mass.). The kinase activity was tested in buffer (8 mM MOPS pH 7.0, 0.2 mM EDTA, 10 mM MgAcetate), with 0.1 mg/mL histone H1, in the presence of 45 µM [—^33P] ATP (500 cpm/pmol) for CDK1 or 120 μM [γ—^33P] ATP (500 cpm/pmol) for CDK2 in a final reaction volume of […]. The reaction was initiated by the addition of the MgATP mix. After incubation for 40 min at 30° C., the reaction was stopped by the addition of 5 μL of 3% phosphoric acid solution. 10 μL aliquots of supernatant were spotted onto 2.5 cm×3 cm pieces of Whatman […] phosphocellulose paper, and 20 s later, the filters were washed three times for 5 min in 75 mM phosphoric acid and once in methanol prior to drying. The […] filters were counted in the presence of 1 mL of ACS (Amersham) scintillation fluid. The activities are usually expressed as a percentage of the maximal activity, i.e., in the absence of inhibitors. Controls were applied with appropriate dilutions of DMSO.

K562 human leukemia cell = experiment: SRB cell proliferation assay, K562; assay type: cell-based; conditions: K562, 72 h, 3 days
Procedure: (§1) ^a A series of indirubin derivatives were tested at five concentrations for their effects on various human cancer cell lines using SRB assay, as described in the Experimental Section.
(§2) Cells (A549, HT1080, HCT116, K562, SNU638, KB, MCF-7) were counted, diluted to 5×10^4 cells/mL with fresh medium (MEME, DMEM or RPMI containing 10% FBS), and added 190 μL of cell suspension to 96-well plates containing various concentrations of test compounds (10 μL in 10% aqueous DMSO). Test plates were incubated for 3 days at 37° C. in CO2 incubator. For zero day controls, cells were incubated for 30 min at 37° C. in CO2 incubator. All treatments were performed in triplicate. After the incubation periods, cells were fixed with 50 μL of cold 50% TCA at 4° C. for 30 min, washed 5 times with tap water, and air-dried. The fixed cells were stained with 0.4% SRB solution in 1% aqueous acetic acid at room temperature for 1 h. Free SRB solution was then removed by rinsing 5 times with 1% acetic acid, and air-dried. The bound dye was dissolved with 200 µL of 10 mM Tris-base (pH 10.0), and absorbance was determined at 515 nm using an ELISA microplate reader. Finally, the absorbance values obtained with each of the treatment procedures were averaged, and the average values obtained with the zero day control were subtracted.

[1] = tested on: HT1080 human fibro sarcoma cell; experiment: SRB cell proliferation assay, HT1080; assay type: cell-based; conditions: HT-1080, 72 h, 3 days
Procedure: as §1, §2

[2] = tested on: MCF-7 human breast cancer cell; experiment: SRB cell proliferation assay, MCF-7; assay type: cell-based; conditions: MCF7, 72 h, 3 days
Procedure: as §1, §2

[3] = tested on: A549 human lung cancer cell; experiment: SRB cell proliferation assay, A549; assay type: cell-based; conditions: A549, 72 h, 3 days
Procedure: as §1, §2

[4] = tested on: SNU638 human stomach cancer cell; experiment: SRB cell proliferation assay, SNU638; assay type: cell-based; conditions: SNU-638, 72 h, 3 days
Procedure: as §1, §2

[5] = tested on: KB human nasopharyngeal cancer cell; experiment: SRB cell proliferation assay, KB; assay type: cell-based; conditions: 72 h, 3 days
Procedure: as §1, §2

[6] = tested on: HCT116 human colon cancer cell; experiment: SRB cell proliferation assay, HCT116; assay type: cell-based; conditions: 3 days
Procedure: as §1, §2

[7] = tested on: several human cancer cell lines; experiment: SRB cell proliferation assay, summary over cell lines; assay type: cell-based; conditions: for IC50: Homo sapiens, range over cell lines, read-out: anti-proliferative IC50, range over cancer cell lines
Procedure: as §1, §2

IC50 (CDK2/cyclin E) | IC50 (K562 human leukemia cell) [µM] | IC50 [1] [µM] | IC50 [2] [µM] | IC50 [3] [µM] | IC50 [4] [nM] | IC50 [5] [µM] | IC50 ([6]; Homo sapiens, HCT-116, 72 h) [nM] | IC50 [7] [nM] | CDK2 potency relative to compound 1 (CDK2/cyclin E) | IC50 [6] [nM] | selectivity for CDK2 over CDK1 (CDK2/cyclin E; CDK2 vs CDK1) [fold] | CDK2 inhibitory effect relative to 16b (CDK2/cyclin E; enhanced compared with 16b) [fold] | SMILES | anti-proliferative activity in words [7]
 | > 20 | > 20 | 8.79 | > 20 | 12700 | 5.18 | 18800 |  |  |  |  |  | Cc1ccc2c(c1)C(=NO)/C(=C1/C(=O)Nc3ccc(Cl)cc31)N2 [Compound 14a, (2′Z, 3′E)-5′-Methyl-5-chloro-indirubin-3′-oxime] | 
8.68 nM | 0.8 | 3.92 | 1.06 | > 20 | 1060 | 2.1 | 1410 | 800 to 1000 |  |  | 7 | 270 | Cc1ccc2c(c1)C(=NO)/C(=C1/C(=O)Nc3ccc([N+](=O)[O-])cc31)N2 [Compound 14b, (2′Z, 3′E)-5′-Methyl-5-nitro-indirubin-3′-oxime] | 
 | > 20 | > 20 | 10.5 | > 20 | 11500 | 10.6 | > 20000 |  |  |  |  |  | Cc1ccc2c(c1)C(=NO)/C(=C1/C(=O)Nc3ccc(F)cc31)N2 [Compound 14c, (2′Z, 3′E)-5′-Methyl-5-fluoro-indirubin-3′-oxime] | 
 | > 20 | > 20 | 7.3 | > 20 | > 20000 | 8.13 | > 20000 |  |  |  |  |  | Cc1ccc2c(c1)C(=NO)/C(=C1/C(=O)Nc3ccc(OC(F)(F)F)cc31)N2 [Compound 14d, (2′Z, 3′E)-5′-Methyl-5-trifluoromethoxy-indirubin-3′-oxime] | 
2950 nM | > 20 | > 20 | > 20 | > 20 | > 20000 | > 20 | > 20000 |  |  |  |  |  | COc1ccc2c(c1)C(=NO)/C(=C1/C(=O)Nc3ccc([N+](=O)[O-])cc31)N2 [Compound 16a, (2′Z, 3′E)-5′-Methoxy-5-nitro-indirubin-3′-oxime] | 
4120 nM | 5.29 | 4.84 | > 20 | 6.71 | 13600 | > 20 | 3590 |  |  |  |  |  | COc1ccc2c(c1)C(=NO)/C(=C1/C(=O)Nc3ccc(F)cc31)N2 [Compound 16b, (2′Z, 3′E)-5′-Methoxy-5-fluoro-indirubin-3′-oxime] | moderate anti-proliferative activity
8620 nM | > 20 | > 20 | 13 | > 20 | > 20000 | 20 | > 20000 |  |  |  |  |  | COc1ccc2c(c1)C(=NO)/C(=C1/C(=O)Nc3ccc(OC(F)(F)F)cc31)N2 [Compound 16c, (2′Z, 3′E)-5′-Methoxy-5-trifluoromethoxy-indirubin-3′-oxime] | 

Further lines, the compound ahead of its results:

SMILES | IC50 (CDK2/cyclin E) | IC50 (K562 human leukemia cell) [µM] | IC50 [1] [µM] | IC50 [2] [µM] | IC50 [3] [µM] | IC50 [4] [nM] | IC50 [5] [µM] | IC50 ([6]; Homo sapiens, HCT-116, 72 h) [nM] | IC50 [7] [nM] | CDK2 potency relative to compound 1 (CDK2/cyclin E) | IC50 [6] [nM] | selectivity for CDK2 over CDK1 (CDK2/cyclin E; CDK2 vs CDK1) [fold] | CDK2 inhibitory effect relative to 16b (CDK2/cyclin E; enhanced compared with 16b) [fold] | anti-proliferative activity in words [7]
O=C1Nc2ccc([N+](=O)[O-])cc2/C1=C1/Nc2ccccc2C1=NO [Compound 1, 5-nitroindirubin-3′-oxime, reference compound] | 7 nM and 7.35 nM |  |  |  |  |  |  |  |  |  |  |  |  | 
O=C1Nc2ccc(Cl)cc2/C1=C1/Nc2ccc(O)cc2C1=NO [Compound 11a, (2′Z, 3′E)-5′-Hydroxy-5-chloro-indirubin-3′-oxime] | 5.27 nM | 12.2 | 2.92 | 10.7 | 16.4 | 5140 | 10.2 | 3500 |  |  |  |  |  | 
O=C1Nc2ccc(F)cc2/C1=C1/Nc2ccc(O)cc2C1=NO [Compound 11c, (2′Z, 3′E)-5′-Hydroxy-5-fluoro-indirubin-3′-oxime] | 2.25 nM | 1.4 | 0.68 | 2.6 | 4.09 | 2110 | 4.6 | 1660 |  |  |  |  |  | 
O=C1Nc2ccc(OC(F)(F)F)cc2/C1=C1/Nc2ccc(O)cc2C1=NO [Compound 11d, (2′Z, 3′E)-5′-Hydroxy-5-trifluoromethoxy-indirubin-3′-oxime] | 8.32 nM | 5.9 | 2.28 | 4.2 | 16.9 | 2960 | 5.8 | 2250 |  |  |  |  |  | 
O=C1Nc2ccc(Cl)cc2/C1=C1/Nc2ccc(Cl)cc2C1=NO [Compound 12a, (2′Z, 3′E)-5′-Chloro-5-chloro-indirubin-3′-oxime] | 11.1 nM | 17.2 | 12.2 | 6.1 | > 20 | 2570 | 11.9 | 1860 |  |  |  |  |  | 
O=C1Nc2ccc(F)cc2/C1=C1/Nc2ccc(Cl)cc2C1=NO [Compound 12c, (2′Z, 3′E)-5′-Chloro-5-fluoro-indirubin-3′-oxime] | 10.1 nM | 14.7 | 3.62 | 3.5 | 18.9 | 2280 | 3.6 | 1700 |  |  |  |  |  | 
O=C1Nc2ccc(OC(F)(F)F)cc2/C1=C1/Nc2ccc(Cl)cc2C1=NO [Compound 12d, (2′Z, 3′E)-5′-Chloro-5-trifluoromethoxy-indirubin-3′-oxime] | 76.2 nM | > 20 | 17.7 | 4.2 | > 20 | 2710 | 2.8 | 3790 |  |  |  |  |  | 
O=C1Nc2ccc(Cl)cc2/C1=C1/Nc2ccc(F)cc2C1=NO [Compound 13a, (2′Z, 3′E)-5′-Fluoro-5-chloro-indirubin-3′-oxime] | 8.01 nM | 7.14 | 5.33 | 7 | > 20 | 6320 | 9.1 | 3300 |  |  |  |  |  | 
O=C1Nc2ccc([N+](=O)[O-])cc2/C1=C1/Nc2ccc(F)cc2C1=NO [Compound 13b, (2′Z, 3′E)-5′-Fluoro-5-nitro-indirubin-3′-oxime] | 1.71 nM | 0.46 | 0.64 | 0.9 | 0.57 | 940 | 0.9 | ~300 | 200 to 3300 | approximately 4 fold | 280 |  |  | 
O=C1Nc2ccc(F)cc2/C1=C1/Nc2ccc(F)cc2C1=NO [Compound 13c, (2′Z, 3′E)-5′-Fluoro-5-fluoro-indirubin-3′-oxime] | 1.83 nM | 15.9 | 8.6 | 6.57 | 10.3 | 2230 | 13.2 | 13500 |  | approximately 4 fold |  |  |  | 
O=C1Nc2ccc(OC(F)(F)F)cc2/C1=C1/Nc2ccc(F)cc2C1=NO [Compound 13d, (2′Z, 3′E)-5′-Fluoro-5-trifluoromethoxy-indirubin-3′-oxime] | 60.3 nM | 1.5 | 3.95 | 4.1 | 19.9 | 1890 | 3.8 | 1500 |  |  |  |  |  | 
